Experimental data published in US5686486A, “4-hydroxy-benzopyran-2-ones and 4-hydroxy-cycloalkyl[b]pyran-2-ones useful to treat retroviral infections” (priority 1995, dated 1997).
Where “and” joins values, the source holds several entries; their conditions need not be identical. Equal values may be shown once. Where a name gives a salt, the structure may show the parent alone. Read-outs that look alike come from different tables or passages of the source.

Target: HIV-1 protease (Human immunodeficiency virus type 1 group M subtype B, UniProt P04585)
Test: biochemical
Conditions: for inhibition at 1 µM: read-out: HIV-1 Protease % Inhib, dose 1.000 uM; for inhibition at 10 µM: read-out: HIV-1 Protease % Inhib, dose 10.000 uM; for inhibition at 100 µM: read-out: HIV-1 Protease % Inhib, dose 100.000 uM
Method: The HIV protease screening assay is based on fluorescently labeled substrate which can be resolved from nonlabeled cleavage product using special beads coated with streptavidin. The substrate is biotinylated at the amino terminal arginine and fluorescently labeled with fluorescein isothiocynate (FITC) at the carboxyl terminal lysine. This assay has been employed to detect novel, nonpeptidic inhibitors of HIV-1 protease. Substrate (20 μl of 0.2 μM), sample (10 μl of desired concentration), and enzyme (10 μl of 0.1 μM) are added to a 96 well pandex plate. The assay is run in 0.1M sodium acetate buffer at pH 5.5 in the presence of 1.0M sodium chloride and 0.05% NP-40 with incubated in the dark for one hour at room temperature. Strepavidin coated polystyrene beads {40 μl of 0.1% (w/v)} are added and the plate is incubated in the dark for an additional half hour. The labeled cleavage product is separated from the unreacted substrate via filtration and is read on the Idexx screen machine. The data are analyzed by appropriate computer algorithms to ascertain percent inhibition values.

Compound | IC50 (HIV-1 Protease IC50) | inhibition at 1 µM [%] | inhibition at 10 µM [%] | inhibition at 100 µM [%] | further results
CCC(c1cccc(NC(=O)CCNC(=O)OC(C)(C)C)c1)c1c(O)c2ccc(OC)cc2oc1=O (stereo not drawn) [Example 58, Coumarin, 4-hydroxy-3-[1-[3-[[3-[(1,1-dimethylethoxycarbonyl)amino]-1-oxopropyl]amino]phenyl]propyl]-7-methoxy-] | 1200 nM | 36.3 | 90.2 | 108 | 
CCC(c1cccc(NC(=O)C2CCCN2C(=O)OC(C)(C)C)c1)c1c(O)c2ccccc2oc1=O (stereo not drawn) [Example 59, 1-Pyrrolidinecarboxylic acid, 2-[[[3-[1-(4-hydroxy-2-oxo-2H-1-benzopyran-3-yl)propyl]phenyl]amino]carbonyl]-, 1,1-dimethylethyl ester] |  | < 10 | 21.5 | 82.8 | 
CCC(c1cccc(NC(=O)C(C)NC(=O)OC(C)(C)C)c1)c1c(O)c2ccccc2oc1=O (stereo not drawn) [Example 60, Carbamic acid, [2-[[3-[1-(4-hydroxy-2-oxo-2H-1-benzopyran-3-yl)propyl]phenyl]amino]-1-methyl-2-oxoethyl]-, 1,1-dimethylethyl ester] | 1100 nM | 31.5 | 90.8 | 117 | 
CCC(c1cccc(NC(=O)C(C)N)c1)c1c(O)c2ccccc2oc1=O (stereo not drawn) [Example 61, Propanamide, 2-amino-N-[3-[1-(4-hydroxy-2-oxo-2H-1-benzopyran-3-yl)propyl]phenyl]-, mono(trifluoroacetate) (salt)] | 1000 nM | 77.8 | 115 | 119 | 
CCC(c1cccc(NC(=O)CCc2ccc(O)cc2)c1)c1c(O)c2ccccc2oc1=O (stereo not drawn) [Example 62, Coumarin, 4-hydroxy-3-[1-[3-[[3-(4-hydroxyphenyl)-1-oxopropyl]amino]phenyl]propyl]-] |  | < 10 | 10.6 | 78.3 | 
CCC(c1cccc(NC(=O)CCn2ccc3ccccc32)c1)c1c(O)c2ccccc2oc1=O (stereo not drawn) [Example 63, Coumarin, 4-hydroxy-3-[1-[3-[[3-(^1 H-indol-1-yl)-1-oxopropyl]amino]phenyl]propyl]-] | 2000 nM | 77.6 | 90.3 | 111 | 
CCC(c1cccc(NC(=O)CCc2cccc3ccccc23)c1)c1c(O)c2ccccc2oc1=O (stereo not drawn) [Example 64, Coumarin, 4-hydroxy-3-[1-[3-[[3-(1-naphthyl)-1-oxopropyl]amino]phenyl]propyl]-] | 5800 nM | 29.1 | 78.1 | 104 | 
CCC(c1cccc(NC(=O)CCSc2nc3ccccc3s2)c1)c1c(O)c2ccccc2oc1=O (stereo not drawn) [Example 65, Coumarin, 3-[1-[3-[[3-[(2-benzothiazolyl)thio]-1-oxopropyl]amino]phenyl]propyl]4-hydroxy-] |  | < 10 | 48.4 | 86.1 | 
CC(C)(C)OC(=O)CC(c1ccccc1)c1c(O)c2ccccc2oc1=O (stereo not drawn) [Example 66, 4-hydroxy-3-[α-tert-butyloxycarbonylmethyl]benzylcoumarin] |  | < 10 | < 10 | 52.6 | 
C=CCOc1cccc(C(CC)c2c(O)c3ccccc3oc2=O)c1 (stereo not drawn) [Example 67, 3-(1'-(3-Allyloxyphenyl)propyl)-4-hydroxycoumarin] |  | < 10 | 11.7 | 60.9 | 
CCC(c1cccc(OCC(O)CO)c1)c1c(O)c2ccccc2oc1=O (stereo not drawn) [Example 68, 3-(1'-(3-((2,3-Dihydroxy)propyloxy)phenyl)propyl)-4-hydroxycoumarin] |  | < 10 | < 10 | 56 | 
C=CCOc1ccccc1C(CC)c1c(O)c2ccccc2oc1=O (stereo not drawn) [Example 69, 3-(1'-(2-Allyloxyphenyl)propyl)-4-hydroxycoumarin] |  | < 10 | 20.6 | 92.2 | 
CCC(c1ccccc1OC)c1c(O)c2ccccc2oc1=O (stereo not drawn) [Example 70, 3-(1'-(2-Methoxyphenyl)propyl)-4-hydroxycoumarin] |  | < 10 | 10.2 | 72.2 | 
CCC(c1cccc(Br)c1)c1c(O)c2ccccc2oc1=O (stereo not drawn) [Example 71, 3-(1'-(3-Bromophenyl)propyl)-4-hydroxycoumarin] |  | < 10 | 15 | 80 | 
CCC(c1ccc(OC(C)=O)cc1)c1c(O)c2ccccc2oc1=O (stereo not drawn) [Example 72, 3-(1'-(4-Acetoxyphenyl)propyl)4-hydroxycoumarin] |  | < 10 | 18.9 | 92.3 | 
CCC(c1ccccc1OC(C)=O)c1c(O)c2ccccc2oc1=O (stereo not drawn) [Example 73, 3-(1'-(2-Acetoxyphenyl)propyl)-4-hydroxycoumarin] |  | < 10 | 29.9 | 96.7 | 

Compound | IC50 (HIV-1 Protease IC50) | inhibition at 1 µM [%] | inhibition at 10 µM [%] | inhibition at 100 µM [%] | further results
C=CC(c1ccccc1)c1c(O)c2ccccc2oc1=O (stereo not drawn) [Example 74, 4-Hydroxy-3-(1-phenyl-2-propenyl)-coumarin] |  | < 10 | < 10 | 82.3 | 
O=c1oc2ccccc2c(O)c1C1CCCCc2ccccc21 (stereo not drawn) [Example 75, 4-Hydroxy-3-(5,6,7,8,9-tetrahydro-5H-benzocycloheptenyl)-coumarin] | 2400 nM | 14.5 | 72.7 | 96.6 | 
COc1ccc2c(c1)CCCC2c1c(O)c2ccccc2oc1=O (stereo not drawn) [Example 76, 4-Hydroxy-3-(1-(6-methoxy)-1,2,3,4-tetrahydronaphthyl)-coumarin] |  | < 10 | 47.8 | 96.5 | 
COc1ccc2c(c1)C(c1c(O)c3ccccc3oc1=O)CCC2 (stereo not drawn) [Example 77, 4-Hydroxy-3-(1-(7-methoxy)-1,2,3,4-tetrahydronaphthyl)-coumarin] |  | < 10 | 57.8 | 92.5 | 
C=CCOc1ccc2c(O)c(C(CC)c3ccccc3)c(=O)oc2c1 (stereo not drawn) [Example 78, Coumarin, 7-(allyloxy)-3-(α-ethylbenzyl)-4-hydroxy-] | 8400 nM | < 10 | 65.7 | 83.5 | 
CCC(c1cccc(NC(=O)CCc2c[nH]c3ccccc23)c1)c1c(O)c2ccccc2oc1=O (stereo not drawn) [Example 79, Coumarin, 3-[α-ethyl-[[[2-(indol-3-yl)ethyl]carbonyl]amino]benzyl]-4-hydroxy-] |  | < 10 | 61 | 80.9 | IC50 (read-out: HIV-1 Protease IC50): 13100 nM
COc1ccc2c(O)c(C(C3CC3)C3CC3)c(=O)oc2c1 [Example 80, Coumarin, 3-[bis(cyclopropyl)methyl]-4-hydroxy-7-methoxy-] | 8500 nM | < 10 | 62.6 | 102 | 
CCC(c1ccccc1)c1c(O)c2ccc(OC(C)C)cc2oc1=O (stereo not drawn) [Example 81, Coumarin, 3-(α-ethylbenzyl)-4-hydroxy-7-(1-methylethoxy)-] | 3700 nM | 62 | 75.6 | 85.3 | 
CCOc1ccc2c(O)c(C(CC)c3ccccc3)c(=O)oc2c1 (stereo not drawn) [Example 82, Coumarin, 7-ethoxy-3-(α-ethylbenzyl)-4-hydroxy-] | 900 nM | 30.9 | 69.7 | 89 | 
CCOC(=O)C(CC)c1c(O)c2ccccc2oc1=O (stereo not drawn) [Example 83, Butanoic acid, 2-(4-hydroxy-2-oxo-2H-1-benzopyran-3-yl)-, ethyl ester] |  | < 10 | < 10 | 50.1 | 
CCC(Cc1c(O)c2ccccc2oc1=O)c1ccccc1 (stereo not drawn) [Example 84, Coumarin, 4-hydroxy-3-(2-phenylbutyl)-] |  | < 10 | 30.2 |  | 
CCC(c1ccc(O)cc1)c1c(O)c2ccccc2oc1=O (stereo not drawn) [Example 85, Coumarin, 4-hydroxy-3-[1-(4-hydroxyphenyl)propyl]-] |  | < 10 | 31.6 | 100 | 
CCC(c1ccccc1)c1c(O)c2ccc(C(F)(F)F)cc2oc1=O (stereo not drawn) [Example 86, Coumarin, 7-trifluoromethyl-4-hydroxy-3-(1-phenylpropyl)-] |  | 10.5 | 56.9 | 95.8 | 
CCC(c1ccccc1)c1c(O)c2cc(F)ccc2oc1=O (stereo not drawn) [Example 87, Coumarin, 6-fluoro-4-hydroxy-3-(1-phenylpropyl)-] |  | < 10 | 20.6 | 79 | 
CCC(c1ccccc1)c1c(O)c2ccc(OC)cc2oc1=O (stereo not drawn) [Example 88, Coumarin, 4-hydroxy-7-methoxy-3-(. 1-phenylpropyl)-] | 1520 nM and 1600 nM and 2000 nM | 80 | 108 |  | HIV-1 Protease % Inhib (dose 12.500 uM): 80.8%; HIV-1 Protease % Inhib (dose 100.000 uM): 117.82% and 92% and 93.5%; inhibition at 1.56 µM (read-out: HIV-1 Protease % Inhib, dose 1.560 uM): 49.9%; inhibition at 1.57 µM (read-out: HIV-1 Protease % Inhib, dose 1.570 uM): 41.7%; inhibition at 12.5 µM (read-out: HIV-1 Protease % Inhib, dose 12.500 uM): 89.2%
